In patent US8293763B2, “8-anilinoimidazopyridines and their use as anti-cancer and/or anti-inflammatory agents” (Genentech, Inc., priority 2007, dated 2012) one finds EC50 data, which are given here for one compound.

The subject of assay [1] is HCT116 human colorectal carcinoma. In words: Cell Proliferation Assay (CellTiter-Glo), HCT116. It is filed as cell-based. The settings on record: HCT-116, HCT116 cell line, 72 h exposure. Here is the method: Compounds are tested in a cell proliferation assay using the following cell lines:
(§1) HCT116 human colorectal carcinoma (ATCC)
(§2) Both cell lines are maintained in DMEM/F12 (1:1) media (Gibco) supplemented with 10% FCS at 37° C. in a 5% CO2 humidified incubator.
Cells are seeded in 96-well plates at 2,000 cells/well and after 24 hours they are exposed to different concentrations of compounds in 0.83% DMSO. Cells are grown for a further 72 h, and an equal volume of CellTiter-Glo reagent (Promega) is added to each well. This lyses the cells and generates a luminescent signal proportional to the amount of ATP released (and therefore proportional to the number of cells in the well) that can be detected using a multi-well luminometer.
The EC50 is defined as the concentration at which a given compound achieves 50% inhibition of control. IC50 values are calculated using the XLfit software package (version 2.0.5).
Background: ATP-based viability assays read luminescence as a measure of living cells.

For the next assay, the system named is phospho-ERK. In words: Phospho-ERK Cell-Based Assay (ELISA), HCT116. To be noted: Homo sapiens, HCT-116; HCT116 cell line, 2 h or 24 h exposure. How it is done: Phospho-ERK Cell-Based Assay
Compounds are tested in a cell-based phospho-ERK ELISA using the following cell lines:
as §1, §2
Cells are seeded in 96-well plates at 2,000 cells/well and after 24 h they are exposed to different concentrations of compounds in 0.83% DMSO. Cells are grown for a further 2 h or 24 h, fixed with formaldehyde (2% final) and permeabilised with methanol. Following blocking with TBST-3% BSA, fixed cells are incubated with primary antibody (anti-phospho ERK from rabbit) over-night at 4° C. Cells are incubated with Propidium Iodide (DNA fluorescent dye) and detection of cellular p-ERK is performed using an anti-rabbit secondary antibody conjugated to the fluorescent Alexa Fluor 488 dye (Molecular probes). The fluorescence is analysed using the Acumen Explorer (TTP Labtech), a laser-scanning microplate cytometer, and the Alexa Fluor 488 signal is normalised to the PI signal (proportional to cell number).
The EC50 is defined as the concentration at which a given compound achieves a signal half way between the baseline and the maximum response. EC50 values are calculated using the XLfit software package (version 2.0.5).
A general note: An ELISA detects its analyte on a solid surface through an enzyme-linked reagent.

For orientation: EC50 means the midpoint of the concentration-response curve. `C[C@H](O)CONC(=O)c1ccn2cncc2c1Nc1ccc(Br)cc1F` [Example 12, 8-(4-Bromo-2-fluoro-phenylamino)-imidazo[1,5-a]pyridine-7-carboxylic acid ((S)-2-hydroxy-propoxy)-amide]: the results for the EC50 (in assay [1]; in the assay with phospho-ERK) were less than 100 nM and less than 200 nM, respectively.
